The target of the experiment is T1, CYP17 (human testicular microsome) (Homo sapiens, UniProt P05093).
T1 construct: using microsomal fraction from human testis (Celsis Cat #S00110) as the enzyme source; tissue Celsis S00110; host or cells: human testis microsomal fraction
T1 sequence (P05093 1-508): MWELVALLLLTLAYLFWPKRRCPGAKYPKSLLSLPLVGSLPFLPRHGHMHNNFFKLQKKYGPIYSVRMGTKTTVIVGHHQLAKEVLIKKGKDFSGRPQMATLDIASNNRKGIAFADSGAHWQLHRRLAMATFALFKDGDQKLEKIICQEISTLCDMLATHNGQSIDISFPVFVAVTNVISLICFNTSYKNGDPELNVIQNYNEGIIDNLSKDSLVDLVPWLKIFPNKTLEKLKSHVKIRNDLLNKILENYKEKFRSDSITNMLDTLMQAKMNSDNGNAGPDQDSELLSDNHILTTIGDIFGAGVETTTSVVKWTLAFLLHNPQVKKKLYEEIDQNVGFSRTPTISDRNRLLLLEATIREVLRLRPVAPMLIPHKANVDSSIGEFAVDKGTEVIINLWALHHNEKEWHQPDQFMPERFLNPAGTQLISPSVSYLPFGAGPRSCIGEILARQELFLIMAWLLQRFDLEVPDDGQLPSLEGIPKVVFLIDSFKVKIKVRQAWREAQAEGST
In words: CYP17 enzymatic assay (% inhibition at 1 nM) (Biological Example 12). The class given is biochemical.

The mark [1] stands for this setting: compound at 1 nM, read-out: Biological Example No. 12: CYP17 enzymatic assay % inhibition at 1 nM.
Setting [2] is: compound at 1 nM, read-out: CYP17 enzymatic assay % inhibition at 1 nM (Biological Example No. 12).
[3] abbreviates: test compound at 1 nM, read-out: CYP17 enzymatic assay percent inhibition at 1 nM (Biological Example No. 12).

The term inhibition denotes the relative decrease from the control value, in per cent.

Read-outs that look alike come from different tables or passages of the source. Some results are limits rather than exact numbers.

In the case of `CC1=C2CCC3C(CC[C@]4(C)C(c5cccnc5)=CCC34)[C@@]2(C)CC/C1=N\O` (stereo partly drawn) [Compound 364, (10R,13S,E)-4,10,13-trimethyl-17-(pyridin-3-yl)-6,7,8,9,10,11,12,13,14,15-decahydro-1H-cyclopenta[a]phenanthren-3(2H)-one oxime], the inhibition at 0.001 µM under setting [1] was in the range of 10 to 50%.
Turning to `CC(=O)O[C@H]1CC[C@@]2(C)C(CCC3C4=CC=C(c5cnccc5C)[C@@]4(C)CCC32)C1` (stereo partly drawn) [Compound 466, (3S,10S,13S)-10,13-dimethyl-17-(4-methylpyridin-3-yl)-2,3,4,5,6,7,8,9,10,11,12,13-dodecahydro-1H-cyclopenta[a]phenanthren-3-yl acetate], the inhibition at 0.001 µM under setting [2] was 10 to 50%.
On the same count and under the same terms, as for `C[C@@]1(O)CC[C@@]2(C)C(CCC3C2CC[C@]2(C)C(c4cccnc4)=CCC32)C1` (stereo partly drawn) [Compound 253, (3R,10S,13S)-3,10,13-trimethyl-17-(pyridin-3-yl)-2,3,4,5,6,7,8,9,10,11,12,13,14,15-tetradecahydro-1H-cyclopenta[a]phenanthren-3-ol], the figure is less than 10%.
Regarding `CC1C(O)CC[C@@]2(C)C1CCC1C2CC[C@]2(C)C(c3cncc(F)c3)=CCC12` (stereo partly drawn) [Compound 305, (10R,13S)-17-(5-fluoropyridin-3-yl)-4,10,13-trimethyl-2,3,4,5,6,7,8,9,10,11,12,13,14,15-tetradecahydro-1H-cyclopenta[a]phenanthren-3-ol], under setting [1], the inhibition at 0.001 µM is less than 10%.
For the compound `CCNC(=O)N[C@@H]1CC[C@@]2(C)C(CC[C@@H]3[C@@H]2CC[C@]2(C)C(n4ccnc4)=CC[C@@H]32)C1` (stereo partly drawn) [Compound 247, 1-((3R,10S,13S)-17-(1H-imidazol-1-yl)-10,13-dimethyl-2,3,4,5,6,7,8,9,10,11,12,13,14,15-tetradecahydro-1H-cyclopenta[a]phenanthren-3-yl)-3-ethylurea], the inhibition at 0.001 µM under setting [2] is more than 50%.
Consider `CC(CO)(CO)C(=O)O[C@H]1CC[C@@]2(C)C(=CC[C@H]3C4=CC=C(c5cccnc5)[C@@]4(C)CC[C@@H]32)C1` [Compound 206, (3S,10R,13S)-10,13-dimethyl-17-(pyridin-3-yl)-2,3,4,7,8,9,10,11,12,13-decahydro-1H-cyclopenta[a]phenanthren-3-yl 3-hydroxy-2-(hydroxymethyl)-2-methylpropanoate], for which, under setting [1], the inhibition at 0.001 µM was less than 10%.
The same measure, in the same setting: as for `CC1C(O)CC[C@@]2(C)C1CCC1C2CC[C@]2(C)C(c3cncc(C(F)F)c3)=CCC12` (stereo partly drawn) [Compound 306, (10R,13S)-17-(5-(difluoromethyl)pyridin-3-yl)-4,10,13-trimethyl-2,3,4,5,6,7,8,9,10,11,12,13,14,15-tetradecahydro-1H-cyclopenta[a]phenanthren-3-ol], the figure is less than 10%; as for `Cc1cc(C2=CCC3C4CC=C5C[C@@H](O)CC[C@]5(C)C4CC[C@]23C)cnc1F` (stereo partly drawn) [Compound 278, (3S,10R,13S)-17-(6-fluoro-5-methylpyridin-3-yl)-10,13-dimethyl-2,3,4,7,8,9,10,11,12,13,14,15-dodecahydro-1H-cyclopenta[a]phenanthren-3-ol], less than 10%.
Take `Cc1cncc(C2=CC=C3[C@@H]4CCC5CNC(=O)CC[C@]5(C)[C@H]4CC[C@]23C)c1` (stereo partly drawn) [Compound 461, (5aR,5bS,7aS,10bR)-5a,7a-dimethyl-8-(5-methylpyridin-3-yl)-1,2,5,5a,5b,6,7,7a,10b,11,12,12a-dodecahydrocyclopenta[5,6]naphtho[2,1-c]azepin-3(4H)-one]: the inhibition at 0.001 µM under setting [2] fell in the range of 10 to 50%.
Regarding `CO[C@H]1CC[C@@]2(C)C(=CCC3C2CC[C@]2(C)C(n4ccnc4)=CCC32)C1` (stereo partly drawn) [Compound 459, 1-((3S,10R,13S)-3-methoxy-10,13-dimethyl-2,3,4,7,8,9,10,11,12,13,14,15-dodecahydro-1H-cyclopenta[a]phenanthren-17-yl)-1H-imidazole], the inhibition at 0.001 µM under setting [2] fell in the range of 10 to 50%.
For `CC(C)(C)c1ccccc1C(=O)O[C@H]1CC[C@@]2(C)C(=CC[C@H]3C4=CC=C(c5cccnc5)[C@@]4(C)CC[C@@H]32)C1` [Compound 201, (3S,10R,13S)-10,13-dimethyl-17-(pyridin-3-yl)-2,3,4,7,8,9,10,11,12,13-decahydro-1H-cyclopenta[a]phenanthren-3-yl 2-(tert-butyl)benzoate], the inhibition at 0.001 µM under setting [2] is less than 10%.
Regarding `CC1C[C@@]2(C)C(CC[C@@H]3[C@@H]2CC[C@]2(C)C(c4cccnc4)=CC[C@@H]32)C(C)C1O` (stereo partly drawn) [Compound 416, (10R,13S)-2,4,10,13-tetramethyl-17-(pyridin-3-yl)-2,3,4,5,6,7,8,9,10,11,12,13,14,15-tetradecahydro-1H-cyclopenta[a]phenanthren-3-ol], the inhibition at 0.001 µM under setting [1] was in the range of 10 to 50%.
In the case of `C[C@@]1(O)CC[C@@]2(C)C(CCC3C2CC[C@]2(C)C(c4cncc(Cl)c4)=CCC32)C1` (stereo partly drawn) [Compound 266, (3R,10S,13S)-17-(5-chloropyridin-3-yl)-3,10,13-trimethyl-2,3,4,5,6,7,8,9,10,11,12,13,14,15-tetradecahydro-1H-cyclopenta[a]phenanthren-3-ol], the inhibition at 0.001 µM under setting [1] lay in the range of 10 to 50%.
`Cc1ccncc1C1=CC[C@H]2[C@@H]3CC[C@H]4CNC(=O)CC[C@]4(C)[C@H]3CC[C@]12C` [Compound 484, (5aR,5bS,7aS,10aS,10bR,12aR)-5a,7a-dimethyl-8-(4-methylpyridin-3-yl)-1,2,5,5a,5b,6,7,7a,10,10a,10b,11,12,12a-tetradecahydrocyclopenta[5,6]naphtho[2,1-c]azepin-3(4H)-one]: under setting [3], the inhibition at 0.001 µM lay within 10 to 50%.
Turning to `C[C@]12CCNC(=O)CC1CCC1C2CC[C@]2(C)C(c3cncc(F)c3)=CCC12` (stereo partly drawn) [Compound 481, (5aS,7aS)-8-(5-fluoropyridin-3-yl)-5a,7a-dimethyl-4,5,5a,5b,6,7,7a,10,10a,10b,11,12,12a-tetradecahydrocyclopenta[5,6]naphtho[1,2-d]azepin-2(1H)-one], under “compound at 1 nM”, the “Biological Example No. 12: CYP17 enzymatic assay % inhibition at 1 nM” value is reported as “N (N means the compound had a percent inhibition of greater than or equal to 10% but less than 50%)”.
`C[C@]1(O)CC[C@@]2(C)C(=CCC3C2CC[C@]2(C)C(c4cncc(F)c4)=CCC32)C1` (stereo partly drawn) [Compound 270, (3S,10R,13S)-17-(5-fluoropyridin-3-yl)-3,10,13-trimethyl-2,3,4,7,8,9,10,11,12,13,14,15-dodecahydro-1H-cyclopenta[a]phenanthren-3-ol]: the inhibition at 0.001 µM under setting [3] lay in the range of 10 to 50%.
The same measure, in the same setting: as for `CCc1ccncc1C1=CC=C2C3CCC4CC(=O)CC[C@]4(C)C3CC[C@]12C` (stereo partly drawn) [Compound 488, (10S,13S)-17-(4-ethylpyridin-3-yl)-10,13-dimethyl-4,5,6,7,8,9,10,11,12,13-decahydro-1H-cyclopenta[a]phenanthren-3(2H)-one], the figure is 10 to 50%.
For `CC(=O)N(C)C1CC[C@@]2(C)C(CCC3C2CC[C@]2(C)C(c4cncc(C)c4)=CCC32)C1` (stereo partly drawn) [Compound 212, N-((10S,13S)-10,13-dimethyl-17-(5-methylpyridin-3-yl)-2,3,4,5,6,7,8,9,10,11,12,13,14,15-tetradecahydro-1H-cyclopenta[a]phenanthren-3-yl)-N-methylacetamide], under setting [2], the inhibition at 0.001 µM was in the range of 10 to 50%.
Still for that read-out and setting: next, `C[C@]12CC[C@H](O)CC1CCC1C2CC[C@]2(C)C(c3ccc[n+]([O-])c3)CCC12` (stereo partly drawn) [Compound 472, 3-((3S,10S,13S)-3-hydroxy-10,13-dimethylhexadecahydro-1H-cyclopenta[a]phenanthren-17-yl)pyridine 1-oxide]: 10 to 50%.
Consider `C[C@]12CCNC(=O)CC1CCC1C2CC[C@]2(C)C(c3cncc(C(F)F)c3)=CCC12` (stereo partly drawn) [Compound 483, (5aS,7aS)-8-(5-(difluoromethyl)pyridin-3-yl)-5a,7a-dimethyl-3,4,5,5a,5b,6,7,7a,10,10a,10b,11,12,12a-tetradecahydrocyclopenta[5,6]naphtho[1,2-d]azepin-2(1H)-one], for which the inhibition at 0.001 µM under setting [1] is more than 50%.
As for `C[C@]12CCC3(CO3)CC1CCC1C2CC[C@]2(C)C(c3cccnc3)=CCC12` (stereo partly drawn) [Compound 475, 3-((10S,13S)-10,13-dimethyl-1,2,4,5,6,7,8,9,10,11,12,13,14,15-tetradecahydrospiro[cyclopenta[a]phenanthrene-3,2′-oxiran]-17-yl)pyridine], the inhibition at 0.001 µM under setting [1] is 10 to 50%.
`CC1(C)C(=O)CC[C@@]2(C)C1=CC[C@@H]1[C@@H]2CC[C@]2(C)C(c3cccnc3)=CC[C@@H]12` [Compound 293, (10R,13S)-4,4,10,13-tetramethyl-17-(pyridin-3-yl)-4,7,8,9,10,11,12,13,14,15-decahydro-1H-cyclopenta[a]phenanthren-3(2H)-one]: the inhibition at 0.001 µM under setting [2] is less than 10%.
As for `CC1(C)C2=CC[C@@H]3[C@H](CC[C@]4(C)C(c5cccnc5)=CC[C@@H]34)[C@@]2(C)CCC1O` (stereo partly drawn) [Compound 294, (10R,13S)-4,4,10,13-tetramethyl-17-(pyridin-3-yl)-2,3,4,7,8,9,10,11,12,13,14,15-dodecahydro-1H-cyclopenta[a]phenanthren-3-ol], the inhibition at 0.001 µM under setting [2] was less than 10%.
The same measure, in the same setting: next, `CC(C)C(=O)O[C@H]1CC[C@@]2(C)C(=CCC3C4=CC=C(c5cccnc5)[C@@]4(C)CCC32)C1` (stereo partly drawn) [Compound 191, (3S,10R,13S)-10,13-dimethyl-17-(pyridin-3-yl)-2,3,4,7,8,9,10,11,12,13-decahydro-1H-cyclopenta[a]phenanthren-3-yl isobutyrate]: 10 to 50%.

(Values after patent US20130252930A1 (BIOMARIN PHARMACEUTICAL INC., priority 2010, published 2013).)
